{
  "source": "patent US20230416247A1",
  "about": "“DRUG-LIKE MOLECULES AND METHODS FOR THE THERAPEUTIC TARGETING OF MICRORNA-21” (University of Washington, priority 2020, published 2023)",
  "key": {"[1]": {"target": "pre-miR21", "experiment": "1D 1H NMR ligand-detect titration of compounds with pre-miR21 RNA", "format": "binding, human", "experimental": "FIG. 6 compares the binding of representative compounds of the invention (see FIG. 5) to pre-miR21. 1D ^1H NMR ligand-detect titrations of compounds, generated by titrating in increasing concentrations of RNA into a solution containing 100 μM of the relevant compound in buffer containing 50 mM deuterated Tris at pH 6.5, as well as 250 mM NaCl, 50 mM KCl and 2 mM MgCl2. As increasing amounts of compounds are bound to the RNA in the course of the titration, the line width of the NMR signal increases, and the NMR peak height decreases. The fraction of compound bound can be calculated from the decrease in […] relative to an internal standard. Saturation of the curves to a value of 1 indicates the predominant presence of a single site with high binding affinity. Approximate binding constants can be calculated by fitting the data points to a binding isotherm. For reference, the data fit for compound −0052 corresponds to a Kd=200 nM, while compound −0045 corresponds to a Kd=600 nM.\nThe compounds show a strong pre-miR21 binding capacity.\nRNA Transcription. All RNAs for ligand screening and structural or biochemical work were prepared in house using in vitro transcription on a large scale (typically 10 mL). RNA transcription and purification protocols used purified DNA oligonucleotide templates (IDT) and T7 RNA polymerase. Briefly, 1 mL of 8 μM TOP DNA (5′-CTATAGTGAGTCGTATTA-3′ (SEQ ID NO: 1)), corresponding to the phage T7 RNA polymerase promoter region, was annealed to 80 μL of 100 μM template sequences with 13 mM MgCl2, heated to 95° C. for […] then allowed to anneal to room temperature over 20 min. The annealing mixture was incubated with 5 mM of each of the four NTPs (ATP, GTP, UTP and CTP, from Sigma), transcription buffer, 8% PEG-8000 and 35 mM magnesium chloride with 0.4 mg/mL T7 RNA polymerase expressed and purified using established methods. All RNA samples are purified from crude transcriptions by 20% denaturing polyacrylamide gel electrophoresis (PAGE), electroeluted and concentrated by ethanol precipitation. The samples are re-dissolved in 12 mL of high salt wash (700 mM NaCl, 200 mM KCl, in 10 mM potassium phosphate at pH 6.5, with 10 μM EDTA to chelate any divalent ions), concentrated using Centriprep conical concentrators ([…] MWC, Millipore). The RNA was then slowly exchanged into low salt storage buffer (10 mM potassium phosphate at pH 6.5, with 10 mM NaCl and 10 μM EDTA). Prior to NMR experiments, all RNA samples were finally desalted using NAP-10 gravity columns, lyophilized and re-dissolved in ‘screening buffer’ or ‘structure buffer’ (see below), then annealed by heating for 4 min to 90° C. and snap cooling at −20° C."}, "[2]": {"system": "mature miR-10b in ASPC1 cells", "experiment": "qRT-PCR of mature miR-10b in ASPC1 cells", "format": "cell-based, human", "conditions": "ASPC1, 10 nmoles, 48 hours, relative to DMSO control", "experimental": "FIGS. 14A-14D compare levels of mature miR-10b and pre-miR-10b measured in gastric adenocarcinoma (AGS) (FIGS. 14A and 14B, respectively) and pancreatic cancer cell line (ASPC 1) (FIGS. 14C and 14D, respectively), normalized to internal controls (U6 or U8 snRNA), in the presence of 10 nmoles of palbociclib (a negative control not expected to directly affect miRNA levels) and compounds −0045 and −0052, 48 hours after incubation, relative to DMSO control, and measured by standard qRT-PCR. We notice that levels of pre-miR-10b are very low in both cell lines, rendering the data very uncertain. Statistically significant changes are labeled with asterisks.\nIn order to investigate whether inhibition was specific to miR-21, levels of mature miR-10b and pre-miR-10b were examined in the same cell lines (FIGS. 14A-14D); this is another oncogenic microRNA implicated in metastasis. […]\nQuantitative real time PCR analysis. […] RNA concentration was assessed with the NanoDrop ND-1000 spectrophotometer (ThermoFisher Scientific). […] Expression of miR-21 was assessed utilizing the TaqMan microRNA assay (Applied Biosystems). […] All experiments were performed in triplicate, with all samples normalized to the internal controls and relative expression levels calculated using the 2^ΔΔCt method."}, "[3]": {"conditions": "100 μM compound, 50 mM deuterated Tris pH 6.5, 250 mM NaCl, 50 mM KCl, 2 mM MgCl2, approximate, read-out: Kd (fit of NMR titration data to binding isotherm)"}, "[4]": {"conditions": "estimated, FIG. 6, read-out: KD for pre-miR21"}},
  "note": "Where two headings read alike, the source gives them in different places.",
  "data": [
    {"compound": "O=c1[nH]c(Nc2ccc(N3CCNCC3)cn2)nc2cccnc12", "note": "[Compound 25]", "values": [
      {"measurement": "Kd", "setting": "[1]; [3]", "value": 600, "unit": "nM"},
      {"measurement": "Kd", "setting": "[1]; [4]", "value": 600, "unit": "nM"},
      {"measurement": "change in levels of mature miR-10b", "setting": "[2]", "value": "smaller and not statistically significant changes"}
    ]},
    {"compound": "O=c1[nH]c(Nc2ccc(N3CCNCC3)cn2)nc2cnccc12", "note": "[Compound 30]", "values": [
      {"measurement": "Kd", "setting": "[1]; [3]", "value": 200, "unit": "nM"},
      {"measurement": "Kd", "setting": "[1]; [4]", "value": 200, "unit": "nM"},
      {"measurement": "reduction of levels of mature miR-10b", "setting": "[2]", "value": "about 2 fold"}
    ]}
  ]
}
